# Like-named read-outs stand apart in the source and are kept apart here.
# Key:
# [1] = biological target: KRAS G12D (Homo sapiens, UniProt P01116, C118A/G12D); assay: KRAS G12D Coupled Nucleotide Exchange Assay; format: biochemical; settings: GDP-bound KRAS G12D/C118A, 2 hours pre-incubation, SOS-mediated nucleotide exchange, AlphaScreen
# Description: The assay plates were then read on a PerkinElmer EnVision Multilabel Reader, using AlphaScreen® technology, and data were analyzed using a 4-parameter logistic model to calculate IC50 values.
# [2] = tested on: p-ERK (AsPC-1 cells); assay: Phospho-ERK1/2 MSD Assay; format: cell-based
# Description: Sixteen hours prior to compound treatment, AsPC-1 cells were seeded in 96-well cell culture plates at a density of 25,000 cells/well and incubated at 37° C., 5% CO2. A compound dose-response titration was diluted in growth media, added to appropriate wells of a cell culture plate, and then incubated at 37° C., 5% CO2 for 2 hours. […] Phosphorylation of ERK1/2 in compound-treated lysates was assayed using Phospho-ERK1/2 Whole Cell Lysate kits (Meso Scale Discovery K151DWD) according to the manufacturer's protocol. Assay plates were read on a Meso Scale Discovery Sector Imager 6000, and data were analyzed using a 4-parameter logistic model to calculate IC50 values.
# [3] = biological target: KRAS G12D (Homo sapiens, UniProt P01116, G12D); assay: KRAS G12D TR-FRET Assay; settings: His-tagged KRAS G12D, biotinylated KRPep-2d, read-out: KRAS G12D Binding IC50
# Description: The plate was incubated for 30 minutes at room temperature. Biotinylated KRPep-2d substrate (Amgen) was diluted to 20 nM in Assay Buffer and 2 uL was added to all wells and incubated for 1 hour at room temperature. Detection Reagent (0.4 nM LANCE Eu-W1024 Anti-6×His (Perkin Elmer AD0401), 5 nM streptavidin-d2 (Cisbio 610SADLA)) was prepared in Assay Buffer, then 4 μL was added to the plate and incubated for 1 hour at room temperature.
# [4] = Homo sapiens, ASPC1, 2 h, read-out: 2 h p-ERK (AsPC-1 cells), IC50 (μM), AsPC-1 cells, 2 hours compound treatment
# [5] = read-out: 2 h p-ERK (AsPC-1 cells), IC50, AsPC-1 cells, 2 hours compound treatment
# KRAS G12D (Homo sapiens, UniProt P01116, C118A/G12D), sequence (P01116 1-169 isoform P01116-2 G12D/C118A): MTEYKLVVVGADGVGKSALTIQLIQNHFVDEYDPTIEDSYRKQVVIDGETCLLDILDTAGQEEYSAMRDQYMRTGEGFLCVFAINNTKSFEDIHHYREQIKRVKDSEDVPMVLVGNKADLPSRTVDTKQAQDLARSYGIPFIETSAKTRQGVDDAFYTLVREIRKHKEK
# KRAS G12D (Homo sapiens, UniProt P01116, G12D), sequence (P01116 1-188 isoform P01116-2 G12D): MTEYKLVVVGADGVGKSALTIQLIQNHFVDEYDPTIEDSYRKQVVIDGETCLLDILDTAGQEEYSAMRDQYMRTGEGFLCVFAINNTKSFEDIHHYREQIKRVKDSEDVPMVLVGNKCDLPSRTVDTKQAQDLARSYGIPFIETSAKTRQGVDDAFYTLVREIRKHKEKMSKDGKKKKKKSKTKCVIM
SMILES,IC50 [1] [nM],"IC50 [2, 4] [µM]",IC50 [3] [nM],"IC50 [2, 5] [µM]"
"Oc1cc(Cl)c(C2CC2)c(-c2ncc3c(N4CCCC5(CC(O)C5)C4)nc(OC[C@@]45CCCN4C[C@H](F)C5)nc3c2F)c1 (single isomer, unassigned) [Example 14]",1,0.164,1,–
"C#Cc1c(F)ccc2cc(O)cc(-c3ncc4c(N5CCCC6(CNC(=O)O6)C5)nc(OC[C@@]56CCCN5C[C@H](F)C6)nc4c3F)c12 (single isomer, unassigned) [Example 17]",1,0.123,1,–
"O=C1NCC2(CCCN(c3nc(OC[C@@]45CCCN4C[C@H](F)C5)nc4c(F)c(-c5cc(O)cc6ccc(F)c(F)c56)ncc34)C2)O1 (single isomer, unassigned) [Example 18]",1,0.31,1,–
"CCc1cccc2cc(O)cc(-c3ncc4c(N5CCCC6(CCO6)C5)nc(OC[C@@]56CCCN5C[C@H](F)C6)nc4c3F)c12 (single isomer, unassigned) [Example 23]",3,0.011,2,–
"Oc1cc(-c2ncc3c(N4CCCC5(CCO5)C4)nc(OC[C@@]45CCCN4C[C@H](F)C5)nc3c2F)c2c(F)c(F)ccc2c1 (single isomer, unassigned) [Example 24]",2,0.009,1,–
"C#Cc1c(F)ccc2cc(O)cc(-c3ncc4c(N5CCCC6(CCO6)C5)nc(OC[C@@]56CCCN5C[C@H](F)C6)nc4c3F)c12 (single isomer, unassigned) [Example 25]",1,0.043,1,–
"CCc1c(F)ccc2cc(O)cc(-c3ncc4c(N5CCCC6(CCS(=O)(=O)C6)C5)nc(OC[C@@]56CCCN5C[C@H](F)C6)nc4c3F)c12 (single isomer, unassigned) [Example 34]",12,–,9,2.19
"CCc1c(F)ccc2cc(O)cc(-c3ncc4c(N5CCCC6(CCS(=O)(=O)C6)C5)nc(OC[C@@]56CCCN5C[C@H](F)C6)nc4c3F)c12 (single isomer, unassigned) [Example 35]",3,–,2,0.06
"C#Cc1c(F)ccc2cc(O)cc(-c3ncc4c(N5CCCC6(CCS(=O)(=O)C6)C5)nc(OC[C@@]56CCCN5C[C@H](F)C6)nc4c3F)c12 (single isomer, unassigned) [Example 36]",2,1.11,2,–
"CCc1c(F)ccc2cc(O)cc(-c3ncc4c(N5CCCC6(CNC6=O)C5)nc(OC[C@@]56CCCN5C[C@H](F)C6)nc4c3F)c12 (single isomer, unassigned) [Example 45]",5,0.161,3,–
"CCc1c(F)ccc2cc(O)cc(-c3ncc4c(N5CCCC6(CCC6O)C5)nc(OC[C@@]56CCCN5C[C@H](F)C6)nc4c3F)c12 (single isomer, unassigned) [Example 49]",13,0.576,7,–
"CCc1c(F)ccc2cc(O)cc(-c3ncc4c(N5CCCC6(C5)CC(C)(O)C6)nc(OC[C@@]56CCCN5C[C@H](F)C6)nc4c3F)c12 (single isomer, unassigned) [Example 56]",6,–,4,0.343
"CCc1c(F)ccc2cc(O)cc(-c3ncc4c(N5CCCC6(C5)CC(C)(O)C6)nc(OC[C@@]56CCCN5C[C@H](F)C6)nc4c3F)c12 (single isomer, unassigned) [Example 57]",10,–,6,0.131
"Oc1cc(-c2ncc3c(N4CCC[C@]5(CCO5)C4)nc(OC[C@@]45CCCN4C[C@H](F)C5)nc3c2F)c2c(Cl)c(F)ccc2c1 (single isomer, unassigned) [Example 58]",1,0.003,1,–
"Oc1cc(-c2ncc3c(N4CCCC5(CCO5)C4)nc(OC[C@@]45CCCN4C[C@H](F)C5)nc3c2F)c2c(Cl)cccc2c1 (single isomer, unassigned) [Example 59]",2,0.006,3,–
"CCc1c(F)ccc2cc(O)cc(-c3ncc4c(N5CCCC6(CCO6)C5)nc(OC[C@@H]5C[C@@H](F)CN5C)nc4c3F)c12 (single isomer, unassigned) [Example 60]",3,0.019,6,–
"CCc1c(F)ccc2cc(O)cc(-c3ncc4c(N5CCCC6(CCO6)C5)nc(OC[C@@]56CCCN5C[C@H](F)C6)nc4c3C)c12 (single isomer, unassigned) [Example 61]",4,0.007,10,–
"CCc1c(F)ccc2cccc(-c3ncc4c(N5CCCC6(CNC(=O)O6)C5)nc(OC[C@@]56CCCN5C[C@H](F)C6)nc4c3F)c12 (single isomer, unassigned) [Example 63]",2,0.026,4,–
"CCc1c(F)ccc2cc(O)cc(-c3ncc4c(N5CCCC6(CCC(=O)O6)C5)nc(OC[C@@]56CCCN5C[C@H](F)C6)nc4c3F)c12 (single isomer, unassigned) [Example 66]",1,0.03,3,–
"CCc1c(F)ccc2cc(O)cc(-c3ncc4c(N5CCCC6(COC(=O)O6)C5)nc(OC[C@@]56CCCN5C[C@H](F)C6)nc4c3F)c12 (single isomer, unassigned) [Example 67]",2,–,4,0.06
"CCc1c(F)ccc2cc(O)cc(-c3ncc4c(N5CCCC6(COC(=O)O6)C5)nc(OC[C@@]56CCCN5C[C@H](F)C6)nc4c3F)c12 (single isomer, unassigned) [Example 68]",11,–,23,1.58
"CCc1c(F)ccc2cc(O)cc(-c3ncc4c(N5CC(O)CC6(CCC6)C5)nc(OC[C@@]56CCCN5C[C@H](F)C6)nc4c3F)c12 (stereo partly drawn) [Example 1, 6-(7-(8-Ethyl-7-fluoro-3-hydroxynaphthalen-1-yl)-8-fluoro-2-(((2R,7aS)-2-fluorotetrahydro-1H-pyrrolizin-7a(5H)-yl)methoxy)pyrido[4,3-d]pyrimidin-4-yl)-6-azaspiro[3.5]nonan-8-ol]",4,0.329,3,–
"CCc1c(F)ccc2cc(O)cc(-c3ncc4c(N5CCOC6(CC6)C5)nc(OC[C@@]56CCCN5C[C@H](F)C6)nc4c3F)c12 [Example 2, 5-Ethyl-6-fluoro-4-(8-fluoro-2-(((2R,7aS)-2-fluorotetrahydro-1H-pyrrolizin-7a(5H)-yl)methoxy)-4-(4-oxa-7-azaspiro[2.5]octan-7-yl)pyrido[4,3-d]pyrimidin-7-yl)naphthalen-2-ol]",4,0.523,8,–
"CCc1c(F)ccc2cc(O)cc(-c3ncc4c(N5CCCC6(CC(=O)N6C)C5)nc(OC[C@@]56CCCN5C[C@H](F)C6)nc4c3F)c12 (stereo partly drawn) [Example 6, 6-(7-(8-Ethyl-7-fluoro-3-hydroxynaphthalen-1-yl)-8-fluoro-2-(((2R,7aS)-2-fluorotetrahydro-1H-pyrrolizin-7a(5H)-yl)methoxy)pyrido[4,3-d]pyrimidin-4-yl)-1-methyl-1,6-diazaspiro[3.5]nonan-2-one]",10,2.4,8,–
"CCc1c(F)ccc2cc(O)cc(-c3ncc4c(N5CC(C)(O)CC6(CC6)C5)nc(OC[C@@]56CCCN5C[C@H](F)C6)nc4c3F)c12 (stereo partly drawn) [Example 19, 5-(7-(8-Ethyl-7-fluoro-3-hydroxynaphthalen-1-yl)-8-fluoro-2-(((2R,7aS)-2-fluorotetrahydro-1H-pyrrolizin-7a(5H)-yl)methoxy)pyrido[4,3-d]pyrimidin-4-yl)-7-methyl-5-azaspiro[2.5]octan-7-ol]",6,0.341,5,–
"Oc1cc(Cl)c(C2CC2)c(-c2ncc3c(N4CCCC5(CCO5)C4)nc(OC[C@@]45CCCN4C[C@H](F)C5)nc3c2F)c1 (stereo partly drawn) [Example 26, 3-Chloro-4-cyclopropyl-5-(8-fluoro-2-(((2R,7aS)-2-fluorotetrahydro-1H-pyrrolizin-7a(5H)-yl)methoxy)-4-(1-oxa-6-azaspiro[3.5]nonan-6-yl)pyrido[4,3-d]pyrimidin-7-yl)phenol]",2,0.066,1,–
"CCc1c(F)ccc2cc(O)cc(-c3ncc4c(N5CCCC6(CCCO6)C5)nc(OC[C@@]56CCCN5C[C@H](F)C6)nc4c3F)c12 (stereo partly drawn) [Example 27, 5-Ethyl-6-fluoro-4-(8-fluoro-2-(((2R,7aS)-2-fluorotetrahydro-1H-pyrrolizin-7a(5H)-yl)methoxy)-4-(1-oxa-7-azaspiro[4.5]decan-7-yl)pyrido[4,3-d]pyrimidin-7-yl) naphthalen-2-ol]",6,0.137,4,–
